According to PMC11253546, “Fidelity in plant hormone modifications catalyzed by Arabidopsis GH3 acyl acid amido synthetases” (The Journal of Biological Chemistry, 2024):

What was measured:
AtGH3.11/JAR1 = target: T1, AtGH3.11/JAR1 (Arabidopsis thaliana, UniProt Q9SKE2); experiment: single-turnover TLC with [α-32P]ATP, acyl-AMP formation; type: biochemical; settings: first half-reaction with JA, no amino acid, 1 mM MgCl2, pH 8.0, 25 °C; labelled compound
T1 sequence (Q9SKE2 1-575): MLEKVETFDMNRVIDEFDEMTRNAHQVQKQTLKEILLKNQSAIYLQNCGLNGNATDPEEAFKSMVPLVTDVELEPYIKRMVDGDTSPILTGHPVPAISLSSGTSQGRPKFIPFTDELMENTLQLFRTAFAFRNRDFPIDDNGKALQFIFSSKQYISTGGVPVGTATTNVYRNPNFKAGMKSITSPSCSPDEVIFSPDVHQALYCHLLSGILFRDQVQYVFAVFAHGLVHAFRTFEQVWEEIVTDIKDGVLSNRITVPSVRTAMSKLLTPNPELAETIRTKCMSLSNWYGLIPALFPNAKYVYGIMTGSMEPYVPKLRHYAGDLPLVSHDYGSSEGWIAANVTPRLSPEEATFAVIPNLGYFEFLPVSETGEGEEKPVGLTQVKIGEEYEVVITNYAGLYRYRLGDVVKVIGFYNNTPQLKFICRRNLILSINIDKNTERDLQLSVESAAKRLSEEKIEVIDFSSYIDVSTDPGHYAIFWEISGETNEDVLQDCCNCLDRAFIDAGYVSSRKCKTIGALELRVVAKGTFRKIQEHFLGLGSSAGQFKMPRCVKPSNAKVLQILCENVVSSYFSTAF

GH3-N2/C5 = test system: T2, GH3-N2/C5; experiment: coupled myokinase/pyruvate kinase/lactate dehydrogenase assay of AMP formation, A340; type: biochemical, Arabidopsis thaliana; settings: 1 mM ATP, 5 mM aspartate, 1 mM MgCl2, pH 8.0, 25 °C
T2 construct: gene GH3.2; one fusion chain: AtGH3.2 residues 1-442 then AtGH3.5 residues 450-608; codon-optimized, pET-28a, His-tagged, E. coli Rosetta2 (DE3), monomer
Source text: coupled myokinase/pyruvate kinase/lactate dehydrogenase assay of AMP formation, A340 on GH3-N2/C5

AtGH3.12/PBS3 = target: T3, AtGH3.12/PBS3 (Arabidopsis thaliana, UniProt Q9LYU4); experiment: TLC with [α-32P]ATP, acyl-AMP and AMP formation; type: biochemical; settings: without or with glutamate, 1 mM MgCl2, pH 8.0, 25 °C
T3 construct: gene GH3.12; once misprinted PBS2
T3 sequence (Q9LYU4 1-575): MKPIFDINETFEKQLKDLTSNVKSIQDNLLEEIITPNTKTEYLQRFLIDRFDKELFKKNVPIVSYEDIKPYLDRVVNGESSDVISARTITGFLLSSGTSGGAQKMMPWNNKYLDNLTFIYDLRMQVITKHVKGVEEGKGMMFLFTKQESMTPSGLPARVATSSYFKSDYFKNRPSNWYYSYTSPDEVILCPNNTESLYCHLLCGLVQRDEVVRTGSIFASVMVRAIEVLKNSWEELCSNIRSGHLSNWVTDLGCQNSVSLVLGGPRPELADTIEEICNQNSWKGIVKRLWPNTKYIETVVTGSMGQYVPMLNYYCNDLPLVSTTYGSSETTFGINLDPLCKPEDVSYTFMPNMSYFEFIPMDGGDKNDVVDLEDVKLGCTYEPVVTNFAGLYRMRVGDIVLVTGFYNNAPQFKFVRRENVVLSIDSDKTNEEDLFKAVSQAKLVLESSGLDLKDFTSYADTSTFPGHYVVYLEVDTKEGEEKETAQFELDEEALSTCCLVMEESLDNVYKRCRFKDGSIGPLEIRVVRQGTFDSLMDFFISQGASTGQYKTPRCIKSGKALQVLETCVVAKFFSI

SMILES	Km (GH3-N2/C5)	further results
Nc1ncnc2c1ncn2[C@@H]1O[C@H](COP(=O)(O)OP(=O)(O)OP(=O)(O)O)[C@@H](O)[C@H]1O [ATP]		single-turnover TLC with [α-32P]ATP, acyl-AMP formation (AtGH3.11/JAR1): rates of turnover from ATP to acyl-AMP (k1)
O=C(O)c1ccccc1 [BA]	880 ± 68 µM	
O=C(O)Cc1c[nH]c2ccccc12 [IAA]	540 ± 17 µM	
O=C(O)Cc1ccccc1 [PAA]	1500 ± 280 µM	
C=C(O[C@@H]1C=C(C(=O)O)C=C[C@H]1O)C(=O)O [chorismate]		TLC with [α-32P]ATP, acyl-AMP and AMP formation (AtGH3.12/PBS3): reactions using BA, 4-HBA, and chorismate produced acyl-AMP and AMP
